Like-named read-outs stand apart in the source and are kept apart here. Blank lines part the entries; values can stand above or below the molecule they belong to.
How the values were obtained:
[1] = Solubility test of compounds of formula (I)-(IV) in 4 vehicles (water, SGF, FaSSIF, FeSSIF), HPLC; type: physicochemical; conditions: for solubility at 4 h / solubility at 24 h: thermodynamic from solid; for solubility at 4 h / Solubility (μg/mL)_4 hours: 4 hours stirring; for solubility at 4 h: read-out: Solubility (μg/mL)_4 hours; for solubility at 24 h / Solubility (μg/mL)_24 hours: 24 hours stirring; for solubility at 24 h: read-out: Solubility (μg/mL)_24 hours
Procedure: About 5 mg of the compound of formula (I) was weighed accurately, and placed in a sample bottle. 10 mL of acetonitrile was added. The mixture was sonicated for 5 minutes, cooled to room temperature, and well mixed. Two control sample solutions were prepared in parallel, and labeled as STD-1 and STD-2, respectively.
The control sample solution STD-1 was serially diluted 1, 5, 10, 100 and 1000 times and labeled as linear solutions L1, L2, L3, L4 and L5.
The solubility of the compound of formula (I) and its salt in 4 vehicles with different pH were tested. About 10 mg of the compounds of formula (I)-(IV) were weighed respectively, then 5.0 mL of different vehicles (water, SGF, FaSSIF, FeSSIF) were added thereto, respectively, and well mixed to obtain suspensions. Magnetic stir bars were added into the suspensions, and the suspensions were placed on a magnetic stirrer for stirring. After stirring for 2 hours, 4 hours, and 24 hours, the samples were collected and centrifuged. The residual solid samples in the lower layer were detected by XRPD. The concentrations of the samples in the upper layer were determined by HPLC, and the pH value of the samples were also detected.
(§1) FaSSIF: (1) 0.042 g of sodium hydroxide, 0.3438 g of sodium dihydrogen phosphate and 0.6186 g of sodium chloride were weighed, and 90 mL of purified water was added and well mixed. The pH value of the obtained solution were adjusted to 6.5 with 1 N hydrochloric acid or 1 N sodium hydroxide, and the solution were diluted with purified water to a final volume of 100 mL. (2) 50 mL of the above buffer solution was taken, followed by addition of 0.224 g of commercially available FaSSIF/FeSSIF/FaSSGF powder (Biorelevant.com). The buffer solution was stirred until dissolved, and diluted with purified water to a final volume of 100 mL. The buffer solution was placed at room temperature.
as §1, with “FeSSIF:” for “FaSSIF:”, “0.404” for “0.042”, “0.865” for “0.3438”, “glacial acetic acid, 1.1874” for “sodium dihydrogen phosphate and 0.6186”, “5.0” for “6.5”, “1.12” for “0.224”
FaSSGF (SGF): (1) 0.2 g of sodium chloride was added to 90 mL of purified water and mixed well. The pH value thereof was adjusted to 1.8 with 1 N hydrochloric acid and the solution diluted with purified water to a final volume of 100 mL. The obtained solution was allowed to stand at room temperature.

[2] = Solid stability test of crystal form G, crystal form I and crystal form J (HPLC content, total impurities, XRPD, appearance); type: physicochemical
Procedure: About 10 mg of crystal form G, crystal form I, or crystal form J were weighed accurately, and placed on the bottom of a 40 mL glass sample bottle and spread into a thin layer. For an open sample, the bottle mouth thereof was sealed with aluminum foil poked with pinholes to ensure that the sample can fully contact with the ambient air. For a sealed sample, the bottle mouth thereof was sealed with a bottle cap, and wrapped with a sealing film. Two duplicate samples were weighed at each time point of each condition in parallel, and an appropriate amount of sample (not weighed) was taken additionally for XRPD detection. The prepared samples were placed under each condition and were sampled and analyzed when the time point was arrived. On 0th day, 5 control samples were weighed in parallel and stored in a refrigerator at −20° C. until analysis. The samples subjected to light irradiation were prepared by the same method, and placed on the bottom of a 40 mL glass sample bottle. The glass bottle was left open and placed in the upright position in a light irradiation box. In addition, two samples in an appropriate amount were taken as samples in dark, and the glass bottles containing the same were left open, put in the upright position, and wrapped with tin foil, and irradiated with a total luminance of 1.2×10^6Lux.hr and a near ultraviolet power of 200 w.hr/m^2. After irradiation, the samples was stored in the refrigerator at −20° C. for analysis.
The compounds were placed under the following conditions and sampled at different time points to detect the physical properties, and the content and total impurities were analyzed by HPLC.

[3] = FaSSIF, pH 6.5, fassif, vehicle FaSSIF
[4] = FeSSIF, pH 5, fessif, vehicle FeSSIF
[5] = pH of sample in FaSSIF (vehicle pH 6.62)
[6] = pH of sample in FeSSIF (vehicle pH 4.59)
[7] = pH of sample in H2O (vehicle pH 8.23)
[8] = pH of sample in SGF (vehicle pH 1.57)
[9] = water, pH 8.23, water, vehicle H2O
[10] = SGF (FaSSGF), pH 1.8, simulated gastric fluid, vehicle SGF
[11] = Accelerated test (40° C./relative humidity 75%, open), 1st month
[12] = Accelerated test (40° C./relative humidity 75%, open), 2nd month
[13] = Accelerated test (40° C./relative humidity 75%, open), 3rd month
[14] = Accelerated test (40° C./relative humidity 75%, open), 10th day
[15] = Accelerated test (60° C./relative humidity 75%, open), 1st month
[16] = Accelerated test (60° C./relative humidity 75%, open), 2nd month
[17] = Accelerated test (60° C./relative humidity 75%, open), 3rd month
[18] = Accelerated test (60° C./relative humidity 75%, open), 10th day
[19] = High humidity (Room temperature/relative humidity 92.5%, open), 5th day
[20] = High humidity (Room temperature/relative humidity 92.5%, open), 10th day
[21] = High temperature (60° C., open), 5th day
[22] = High temperature (60° C., open), 10th day
[23] = Light irradiation (1.2 × 10^6 Lux·hr, near ultraviolet 200 w·hr/m^2, open), irradiated sample
[24] = Light irradiation test, Dark sample

solubility at 4 h [1, 3]: 781 µg/mL
solubility at 4 h [1, 4]: 1950 µg/mL
solubility at 24 h [1, 4]: 1730 µg/mL
solubility in the three biological vehicle ([1]; SGF, FaSSIF, FeSSIF, conclusion in words): good solubility
pH (4 hours) [1, 5]: 6.58
pH (24 hours) [1, 5]: 6.57
pH (4 hours) [1, 6]: 5.01
pH (24 hours) [1, 6]: 5.01
pH (4 hours) [1, 7]: 8.33
pH (24 hours) [1, 7]: 7.97
pH (4 hours) [1, 8]: 2.10
pH (24 hours) [1, 8]: 2.06
Solubility (μg/mL)_24 hours ([1]; vehicle FaSSIF): 611.3 µg/mL
Solubility (μg/mL)_4 hours ([1]; vehicle H2O): 5.8 µg/mL
Solubility (μg/mL)_24 hours ([1]; vehicle H2O): <LOQ
Solubility (μg/mL)_4 hours ([1]; vehicle SGF): 1971.3 µg/mL
Solubility (μg/mL)_24 hours ([1]; vehicle SGF): 1825.6 µg/mL
solubility in the aqueous phase / water ([1]; water, conclusion in words, listed as free base): extremely difficult to dissolve
Compound: C[C@@H](Oc1ccc2[nH]nc(/C=C(\F)c3ccc(CNC4CCOCC4)nc3)c2c1)c1c(Cl)cncc1Cl [compound of formula (I)]

pH (4 hours) [1, 5]: 6.25
pH (24 hours) [1, 5]: 6.22
pH (4 hours) [1, 6]: 4.90
pH (24 hours) [1, 6]: 4.91
pH (4 hours) [1, 7]: 2.68
pH (24 hours) [1, 7]: 2.68
pH (4 hours) [1, 8]: 1.86
pH (24 hours) [1, 8]: 1.86
Solubility (μg/mL)_4 hours ([1]; vehicle FaSSIF): 949.7 µg/mL
Solubility (μg/mL)_24 hours ([1]; vehicle FaSSIF): 281.6 µg/mL
Solubility (μg/mL)_4 hours ([1]; vehicle FeSSIF): 2010.0 µg/mL
Solubility (μg/mL)_24 hours ([1]; vehicle FeSSIF): 1831.5 µg/mL
Solubility (μg/mL)_4 hours ([1]; vehicle H2O): 1576.9 µg/mL
Solubility (μg/mL)_4 hours ([1]; vehicle SGF): 106.3 µg/mL
Solubility (μg/mL)_24 hours ([1]; vehicle SGF): 45.4 µg/mL
solubility at 24 h [1, 9]: 1540 µg/mL
solubility in the aqueous phase / water ([1]; water, conclusion in words, listed as hydrochloride): highest solubility
Compound: C[C@@H](Oc1ccc2[nH]nc(/C=C(\F)c3ccc(CNC4CCOCC4)nc3)c2c1)c1c(Cl)cncc1Cl [compound of formula (II)]

solubility at 4 h [1, 3]: 910 µg/mL
solubility at 24 h [1, 3]: 942 µg/mL
solubility at 4 h [1, 4]: 2370 µg/mL
solubility at 24 h [1, 4]: 2230 µg/mL
solubility at 4 h [1, 10]: 2420 µg/mL
solubility at 24 h [1, 10]: 16.8 µg/mL
pH (4 hours) [1, 5]: 6.43
pH (24 hours) [1, 5]: 6.33
pH (4 hours) [1, 6]: 4.96
pH (24 hours) [1, 6]: 4.97
pH (4 hours) [1, 7]: 5.60
pH (24 hours) [1, 7]: 5.47
pH (4 hours) [1, 8]: 2.09
pH (24 hours) [1, 8]: 2.08
solubility at 4 h [1, 9]: 99.5 µg/mL
solubility at 24 h [1, 9]: 184 µg/mL
Compound: C[C@@H](Oc1ccc2[nH]nc(/C=C(\F)c3ccc(CNC4CCOCC4)nc3)c2c1)c1c(Cl)cncc1Cl.O=C(O)CC(O)(CC(=O)O)C(=O)O [compound of formula (III)]

solubility at 4 h [1, 3]: 1130 µg/mL
solubility at 24 h [1, 3]: 824 µg/mL
solubility at 4 h [1, 4]: 2410 µg/mL
solubility at 24 h [1, 4]: 2280 µg/mL
solubility at 4 h [1, 10]: 2470 µg/mL
solubility at 24 h [1, 10]: 43.3 µg/mL
pH (4 hours) [1, 5]: 6.26
pH (24 hours) [1, 5]: 6.27
pH (4 hours) [1, 6]: 4.95
pH (24 hours) [1, 6]: 4.95
pH (4 hours) [1, 7]: 6.93
pH (24 hours) [1, 7]: 6.46
pH (4 hours) [1, 8]: 2.09
pH (24 hours) [1, 8]: 2.09
solubility at 4 h [1, 9]: 7.4 µg/mL
solubility at 24 h [1, 9]: 19.3 µg/mL
Compound: C[C@@H](Oc1ccc2[nH]nc(/C=C(\F)c3ccc(CNC4CCOCC4)nc3)c2c1)c1c(Cl)cncc1Cl.O=C(O)C[C@H](O)C(=O)O [compound of formula (IV)]

Appearance ([2]; 0th day): Earth yellow
Content (%) ([2]; 0th day): 100%
Crystal form (XRPD) ([2]; 0th day): form G
Total impurities (%) ([2]; 0th day): 0.11%
Appearance [2, 11]: Earth yellow
Content (%) [2, 11]: 102.45%
Crystal form (XRPD) [2, 11]: form G
Total impurities (%) [2, 11]: 0.16%
Appearance [2, 12]: Earth yellow
Content (%) [2, 12]: 101.07%
Crystal form (XRPD) [2, 12]: form G
Total impurities (%) [2, 12]: 0.17%
Appearance [2, 13]: Earth yellow
Content (%) [2, 13]: 98.81%
Crystal form (XRPD) [2, 13]: form G
Total impurities (%) [2, 13]: 0.18%
Appearance [2, 14]: Earth yellow
Content (%) [2, 14]: 99.97%
Crystal form (XRPD) [2, 14]: form G
Total impurities (%) [2, 14]: 0.11%
Appearance [2, 15]: Earth yellow
Content (%) [2, 15]: 101.51%
Crystal form (XRPD) [2, 15]: form G
Total impurities (%) [2, 15]: 0.17%
Appearance [2, 16]: Earth yellow
Content (%) [2, 16]: 99.86%
Crystal form (XRPD) [2, 16]: form G
Total impurities (%) [2, 16]: 0.18%
Appearance [2, 17]: Earth yellow
Content (%) [2, 17]: 100.21%
Crystal form (XRPD) [2, 17]: form G
Total impurities (%) [2, 17]: 0.19%
Appearance [2, 18]: Earth yellow
Content (%) [2, 18]: 98.38%
Crystal form (XRPD) [2, 18]: form G
Total impurities (%) [2, 18]: 0.15%
Appearance [2, 19]: Earth yellow
Content (%) [2, 19]: 100.82%
Crystal form (XRPD) [2, 19]: form G
Total impurities (%) [2, 19]: 0.11%
Appearance [2, 20]: Earth yellow
Content (%) [2, 20]: 98.79%
Crystal form (XRPD) [2, 20]: form G
Total impurities (%) [2, 20]: 0.11%
Appearance [2, 21]: Earth yellow
Content (%) [2, 21]: 102.02%
Crystal form (XRPD) [2, 21]: form G
Total impurities (%) [2, 21]: 0.16%
Appearance [2, 22]: Earth yellow
Content (%) [2, 22]: 100.14%
Crystal form (XRPD) [2, 22]: form G
Total impurities (%) [2, 22]: 0.16%
Appearance [2, 23]: Earth yellow
Content (%) [2, 23]: 102.93%
Crystal form (XRPD) [2, 23]: form G
Total impurities (%) [2, 23]: 0.37%
Appearance [2, 24]: Earth yellow
Content (%) [2, 24]: 101.69%
Crystal form (XRPD) [2, 24]: form G
Total impurities (%) [2, 24]: 0.11%
thermal stability and stability under accelerated conditions ([2]; conclusion of influencing factors and accelerated tests): excellent
stability under dark conditions ([2]; dark): good stability
impurities generated under light irradiation conditions ([2]; light irradiation): slight impurities
Compound: C[C@@H](Oc1ccc2[nH]nc(/C=C(\F)c3ccc(CNC4CCOCC4)nc3)c2c1)c1c(Cl)cncc1Cl [crystal form G]
